“And” between values parts separate entries of the source, which are not always exact repeats. Identical values can stand only once. Like-named read-outs stand apart in the source and are kept apart here.
What was measured:
[1] = test system: IL-17 production by CD4 T cells; assay: Human Th17 assay (IL-17 production by CD4 T cells under Th17 differentiation); type: cell-based; details: human CD4+ T cells, IL-17 after 3 days, read-out: Human Th17 Assay, IC50 μM
In short: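 Healthy-donor peripheral CD4+ T cells (1.5×10^5/well) preincubated 1 h with titrated compound (0.2% DMSO), then differentiated with anti-CD3/CD28 beads, anti-IL4, anti-IFNγ, IL1β, IL23, IL6, TGFβ and IL2 for 3 days at 37 °C. Supernatant IL-17 quantified by MSD electrochemiluminescence against a standard curve; IC50 fitted.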

human RORγt LBD = human RORγt LBD (Homo sapiens (Human), UniProt P51449); assay: RORγt reporter assay (GAL4-RORγt LBD luciferase in HEK293T cells); type: cell-based; details: for RORγt reporter Assay, % inhibition @ 6 μM / IC50: HEK293T cells; for IC50: 24 hours compound treatment; for inhibition at 6 µM: HEK-293T, read-out: RORγt reporter Assay, % inhibition @ 6 μM, HEK293T cells, 6 μM
In short: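 HEK293T cells transiently co-transfected with GAL4-DBD–wild-type human RORγt LBD (pBIND) and GAL4-responsive firefly luciferase reporter (pGL4.31); renilla luciferase from pBIND normalises transfection/viability. Cells in phenol-red-free DMEM, 5% lipid-reduced FCS, treated with compound 24 h. Firefly/renilla ratio plotted against compound concentration.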

[2] = target: human RORγt ligand binding domain (RORγt LBD) (Homo sapiens (Human), UniProt P51449); assay: RORγt ThermoFluor assay (thermal shift binding affinity); details: estimated from thermal shift
In short: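 Thermal shift used 0.065 mg/mL RORγt LBD with 60 μM 1,8-ANS in 100 mM Hepes pH 7.0, 10 mM NaCl, 2.5 mM GSH and 0.002% Tween-20, heated at 1 °C/min. Fluorescence was excited at 380–400 nm and emission read at 500 nm.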

Sequence of human RORγt ligand binding domain (RORγt LBD) (P51449 other isoform, or with tags, fused parts or gaps): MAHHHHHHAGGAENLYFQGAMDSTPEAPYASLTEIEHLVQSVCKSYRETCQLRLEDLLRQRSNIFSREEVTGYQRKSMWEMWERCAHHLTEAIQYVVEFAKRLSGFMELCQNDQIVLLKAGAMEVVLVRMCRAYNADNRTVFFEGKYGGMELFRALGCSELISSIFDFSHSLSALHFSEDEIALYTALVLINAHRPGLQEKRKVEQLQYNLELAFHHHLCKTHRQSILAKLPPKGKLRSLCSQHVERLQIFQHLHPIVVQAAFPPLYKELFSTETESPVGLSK
Sequence of human RORγt LBD (P51449 258-518): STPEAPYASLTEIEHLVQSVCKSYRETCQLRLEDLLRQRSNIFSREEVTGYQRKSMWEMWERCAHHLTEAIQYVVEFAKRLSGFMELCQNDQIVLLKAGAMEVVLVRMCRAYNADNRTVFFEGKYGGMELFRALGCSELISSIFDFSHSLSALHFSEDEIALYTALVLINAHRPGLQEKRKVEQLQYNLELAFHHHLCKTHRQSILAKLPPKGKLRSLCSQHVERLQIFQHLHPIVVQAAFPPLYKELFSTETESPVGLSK

| Structure (SMILES) | IC50 [1] [µM] | RORγt reporter Assay, % inhibition @ 6 μM (human RORγt LBD) [%] | IC50 (human RORγt LBD) | Kd [2] [nM] | IC50 ([1]; Homo sapiens, CD4+ T, 72 h) [µM] | inhibition at 6 µM (human RORγt LBD) [%] |
| --- | --- | --- | --- | --- | --- | --- |
| COc1nc2ccc(C(O)(c3ccc(C(F)(F)F)nc3)c3cncn3C)cc2c(C#N)c1Cc1ccc(-n2cccn2)cc1 (single isomer, unassigned) [Example 73C, 3-(4-(1H-Pyrazol-1-yl)benzyl)-6-(hydroxy(1-methyl-1H-imidazol-5-yl)(6-(trifluoromethyl)pyridin-3-yl)methyl)-2-methoxyquinoline-4-carbonitrile] | 0.13 | 99 | 0.31 µM | 34 |  |  |
| CCN(CC)c1nc2ccc(C(O)(c3ccc(C(F)(F)F)nc3)c3cncn3C)cc2c(C#N)c1Cc1ccc(-n2cccn2)cc1 (single isomer, unassigned) [Example 74B, 3-(4-(1H-Pyrazol-1-yl)benzyl)-2-(diethylamino)-6-(hydroxy(1-methyl-1H-imidazol-5-yl)(6-(trifluoromethyl)pyridin-3-yl)methyl)quinoline-4-carbonitrile] |  |  | 0.17 µM | 1300 | 0.091 | 95 |
| COc1nc2ccc(C(O)(c3cnnn3C)c3cnc(C)n3C)cc2c(C#N)c1Cc1ccc(C(F)(F)F)cc1 (single isomer, unassigned) [Example 81B, 6-((1,2-Dimethyl-1H-imidazol-5-yl)(hydroxy)(1-methyl-1H-1,2,3-triazol-5-yl)methyl)-2-methoxy-3-(4-(trifluoromethyl)benzyl)quinoline-4-carbonitrile] |  |  | 0.002 µM and ~0.0002 µM | 0.05 | 0.0022 | 104 |
| COc1nc2ccc(C(O)(c3ccccc3)C3CCN(C(C)=O)CC3)cc2c(Cl)c1Cc1ccc(-n2cccn2)cc1 (single isomer, unassigned) [Example 83B, 1-(4-((3-(4-(1H-Pyrazol-1-yl)benzyl)-4-chloro-2-methoxyquinolin-6-yl)(hydroxy)(phenyl)methyl)piperidin-1-yl)ethanone] | 0.016 |  | 0.024 µM and ~0.07 µM | 4.7 |  | 100 |
| COc1nc2ccc(C(O)(c3ccccc3)C3CCN(C(C)=O)CC3)cc2c(Cl)c1Cc1ccc(-n2cccn2)cc1 (single isomer, unassigned) [Example 83C, 1-(4-((3-(4-(1H-Pyrazol-1-yl)benzyl)-4-chloro-2-methoxyquinolin-6-yl)(hydroxy)(phenyl)methyl)piperidin-1-yl)ethanone] | 0.12 | 103 | 0.14 µM | 77 |  |  |
| COc1nc2ccc(C(N)(c3ccc(C)nc3C)c3cnnn3C)cc2c(Cl)c1Cc1ccc(C(F)(F)F)cc1 (single isomer, unassigned) [Example 87C, (4-Chloro-2-methoxy-3-(4-(trifluoromethyl)benzyl)quinolin-6-yl)(2,6-dimethylpyridin-3-yl)(1-methyl-1H-1,2,3-triazol-5-yl)methanamine] |  | 99 | 0.012 µM | 1.3 | 0.0045 |  |
| Cc1ccc(C(O)(c2ccc3nc(C#N)c(Cc4ccc(C(F)(F)F)cc4)c(C#N)c3c2)c2cnnn2C)c(C)n1 (single isomer, unassigned) [Example 88C, 6-((2,6-Dimethylpyridin-3-yl)(hydroxy)(1-methyl-1H-1,2,3-triazol-5-yl)methyl)-3-(4-(trifluoromethyl)benzyl)quinoline-2,4-dicarbonitrile] |  | 95 | 0.0088 µM | 0.04 | 0.0028 |  |
| CCc1nc2ccc(C(O)(c3cnnn3C)C3CN(C(C)=O)C3)cc2c(Cl)c1Cc1ccc(C(F)(F)F)cc1 (single isomer, unassigned) [Example 90B, 1-(3-((4-Chloro-2-ethyl-3-(4-(trifluoromethyl)benzyl)quinolin-6-yl)(hydroxy)(1-methyl-1H-1,2,3-triazol-5-yl)methyl)azetidin-1-yl)ethanone] |  |  | ~0.004 µM | 0.56 | 0.012 | 98 |
| Cn1cncc1C(O)(c1ccc(C(F)(F)F)nc1)c1ccc2nc(N3CCC3)c(Cc3ccc(C(F)(F)F)cc3)c(Cl)c2c1 (single isomer, unassigned) [Example 92C, (2-(Azetidin-1-yl)-4-chloro-3-(4-(trifluoromethyl)benzyl)quinolin-6-yl)(1-methyl-1H-imidazol-5-yl)(6-(trifluoromethyl)pyridin-3-yl)methanol] | 0.0086 | 97 | 0.017 µM | 1.4 |  |  |
| COc1nc2ccc(C(O)(c3ccc(C(F)(F)F)nc3)c3cncn3C)cc2c(Cl)c1Cc1ccc(C(F)(F)F)nc1 (single isomer, unassigned) [Example 94B, (4-Chloro-2-methoxy-3-((6-(trifluoromethyl)pyridin-3-yl)methyl)quinolin-6-yl)(1-methyl-1H-imidazol-5-yl)(6-(trifluoromethyl)pyridin-3-yl)methanol] | 1.9 |  | 0.21 µM | 98 |  | 96 |
| COc1nc2ccc(C(O)(c3ccc(C(F)(F)F)nc3)c3cncn3C)cc2c(Cl)c1Cc1ccc(C(F)(F)F)nc1 (single isomer, unassigned) [Example 94C, (4-Chloro-2-methoxy-3-((6-(trifluoromethyl)pyridin-3-yl)methyl)quinolin-6-yl)(1-methyl-1H-imidazol-5-yl)(6-(trifluoromethyl)pyridin-3-yl)methanol] | 0.048 | 95 | 0.16 µM | 6.5 |  |  |
| COc1nc2ccc(C(O)(c3ccc(C#N)cc3)c3cncn3C)cc2c(C#N)c1Cc1ccc(C(F)(F)F)cc1 (single isomer, unassigned) [Example 96B, 6-((4-cyanophenyl)(hydroxy)(1-methyl-1H-imidazol-5-yl)methyl)-2-methoxy-3-(4-(trifluoromethyl)benzyl)quinoline-4-carbonitrile] | 0.05 |  | 0.16 µM | 48 |  | 97 |

Continued by falling Kd [2], values first:

| IC50 [1] [µM] | RORγt reporter Assay, % inhibition @ 6 μM (human RORγt LBD) [%] | IC50 (human RORγt LBD) | Kd [2] [nM] | IC50 ([1]; Homo sapiens, CD4+ T, 72 h) [µM] | inhibition at 6 µM (human RORγt LBD) [%] | Structure (SMILES) |
| --- | --- | --- | --- | --- | --- | --- |
|  | 90 | 0.18 µM | 150 | 0.14 |  | CCN(CC)c1nc2ccc(C(O)(c3ccc(Cl)cc3)c3cncn3C)cc2c(Cl)c1Cc1ccc(-n2cccn2)cc1 (single isomer, unassigned) [Example 75C, (3-(4-(1H-Pyrazol-1-yl)benzyl)-4-chloro-2-(diethylamino)quinolin-6-yl)(4-chlorophenyl)(1-methyl-1H-imidazol-5-yl)methanol] |
|  |  | 0.038 µM | 57 | 0.052 | 99 | COc1nc2ccc(C(O)(c3sc(C)nc3C)c3cnnn3C)cc2c(Cl)c1Cc1ccc(C(F)(F)F)cc1 (single isomer, unassigned) [Example 79B, (4-Chloro-2-methoxy-3-(4-(trifluoromethyl)benzyl)quinolin-6-yl)(2,4-dimethylthiazol-5-yl)(1-methyl-1H-1,2,3-triazol-5-yl)methanol] |
|  | 101 | 0.045 µM | 15 | 0.033 |  | COc1nc2ccc(C(O)(c3ccc(C#N)cc3)c3cncn3C)cc2c(C#N)c1Cc1ccc(-n2cccn2)cc1 (single isomer, unassigned) [Example 76C, 3-(4-(1H-Pyrazol-1-yl)benzyl)-6-((4-cyanophenyl)(hydroxy)(1-methyl-1H-imidazol-5-yl)methyl)-2-methoxyquinoline-4-carbonitrile] |
| 0.034 |  | 0.1 µM | 12 |  | 96 | Cn1cncc1C(O)(c1ccc(C(F)(F)F)nc1)c1ccc2nc(N3CCC3)c(Cc3ccc(C(F)(F)F)cc3)c(Cl)c2c1 (single isomer, unassigned) [Example 92B, (2-(Azetidin-1-yl)-4-chloro-3-(4-(trifluoromethyl)benzyl)quinolin-6-yl)(1-methyl-1H-imidazol-5-yl)(6-(trifluoromethyl)pyridin-3-yl)methanol] |
| 0.0061 | 98 | 0.0054 µM | 0.32 |  |  | CCc1nc2ccc(C(O)(c3cnnn3C)C3CN(C(C)=O)C3)cc2c(Cl)c1Cc1ccc(C(F)(F)F)cc1 (single isomer, unassigned) [Example 90C, 1-(3-((4-Chloro-2-ethyl-3-(4-(trifluoromethyl)benzyl)quinolin-6-yl)(hydroxy)(1-methyl-1H-1,2,3-triazol-5-yl)methyl)azetidin-1-yl)ethanone] |
| 0.002 | 103 |  | 0.12 |  |  | COc1nc2ccc(C(O)(c3cnnn3C)c3cnc(C)n3C)cc2c(C#N)c1Cc1ccc(C(F)(F)F)cc1 (single isomer, unassigned) [Example 81C, 6-((1,2-Dimethyl-1H-imidazol-5-yl)(hydroxy)(1-methyl-1H-1,2,3-triazol-5-yl)methyl)-2-methoxy-3-(4-(trifluoromethyl)benzyl)quinoline-4-carbonitrile] |

From US9290476B2, “Methylene linked quinolinyl modulators of RORγt” (Janssen Pharmaceutica NV, priority 2012, dated 2016)
